According to US20110190249A1, “THERAPEUTIC METHODS AND USES OF SAPOGENINS AND THEIR DERIVATIVES” (PHYTOPHARM PLC, priority 2002, published 2011):

How the values were obtained:
[1] = test system: rat primary cortical neurones; assay: Reversal of glutamate-induced neurodegeneration (LDH), treatment after glutamate exposure; format: cell-based; conditions: LDH after 24 h, control = 100
Procedure: Neuronal cell survival was evaluated by measuring lactate dehydrogenase (LDH) activity released in the media 24 h after test compound treatment or glutamate+test compound exposure, using the CytoTox 96 non-radioactive kit and quantitated by measuring wavelength absorbance at 450 nm.
As above mentioned, exposure of rat primary cortical cultures to glutamate (100 μM; 10 min) caused an increase in lactate dehydrogenase (LDH) activity measured after 24 h, indicating a significant neurodegeneration.

[2] = test system: rat primary cortical neurones; assay: Neurite outgrowth in rat primary cortical neurones; format: cell-based; conditions: for Number of neurones displaying neurites, Mean ± s.e.m (%): control 47 ± 2; for Neurite length measured using optical micrometry, Mean ± s.e.m (%): control 100 ± 4
Description: Neurodegenerative disorders are characterised by a progressive loss of neurones and degradation of neuronal processes (neurites). Agents that induce neurite outgrowth may promote the formation of new connections between neurones and ameliorate the symptoms of neurodegenerative conditions (Katzman et al, Faseb J., 5, 278-286, 1991).

[3] = test system: muscarinic acetylcholine receptor; assay: Brain muscarinic acetylcholine receptor density in aged rats (dual-site competitive ligand binding); format: in vivo, rat; conditions: 18 mg kg−1 day−1 oral, 2-3 months
Procedure: (§1) Aged Sprague-Dawley rats aged were divided into different groups, one control and groups treated for 2-3 months with either sarsasapogenin, episarsasapogenin cathylate or smilagenin (18 mg kg^−1 day^−1, n=10). A control group (n=14) of untreated young rats was also included in the study. The daily dose of drug was mixed in a minimum amount of food and was administered every morning separately to each rat.
Muscarinic acetylcholine receptor density in the brain was measured. Tissue was prepared as follows: brains were removed quickly after decapitation, frozen in dry ice, and transferred to a freezer. The brains were homogenised and the pellet was finally suspended in buffer.
The dual-site competitive ligand binding assay was used to measure muscarinic acetylcholine receptor density.

[4] = test system: dopamine (D) 2 receptor; assay: Dopamine D2 receptor density in aged rats; format: in vivo, rat; conditions: aged rats treated 3 months; aged untreated 153.8±40.5, young 200.6±50.9
Procedure: as §1
By contrast, smilagenin and sarsasapogenin treatment in aged rats for 3 months restored the D1 and D2 receptor density (smilagenin 177±10.9; 217±45.7 fmol/mg protein; sarsasapogenin 172.0±44.0; 206.4±60.5 respectively).

[5] = test system: SOD-1 transgenic mice; assay: Survival and behaviour of SOD-1 mice (ALS model); format: in vivo; conditions: SOD mouse
Description: Amyotrophic lateral sclerosis (ALS) is a progressive fatal neurodegenerative disorder that causes motor neurone degeneration, […], paralysis and death. The cause of this disease is heterogeneous: mutations in the Cu/Zn superoxide dismutase (SOD-1) gene is responsible for some forms of human ALS. Animal models of this disease include the SOD-1 transgenic mice over-expressing SOD-1 gene and the progressive motor neuropathy (pmn, a model of Charcot-Marie-Tooth) mice.

C[C@@H]1CC[C@@]2(OC1)O[C@H]1C[C@H]3[C@@H]4CC[C@@H]5C[C@@H](O)CC[C@]5(C)[C@H]4CC[C@]3(C)[C@H]1[C@@H]2C [smilagenin]
Cortical neurones previously exposed to glutamate, Mean ± s.e.m (%) ([1]; 3 nM after glutamate 100 μM 10 min): 109 ± 6% | Cortical neurones previously exposed to glutamate, Mean ± s.e.m (%) ([1]; 30 nM after glutamate 100 μM 10 min): 104 ± 1% | Number of neurones displaying neurites, Mean ± s.e.m (%) ([2]; 0.3 pM): 63 ± 2% | Neurite length measured using optical micrometry, Mean ± s.e.m (%) ([2]; 0.3 pM): 159 ± 5% | Number of neurones displaying neurites, Mean ± s.e.m (%) ([2]; 3 pM): 63 ± 2% | Neurite length measured using optical micrometry, Mean ± s.e.m (%) ([2]; 3 pM): 190 ± 8% | Number of neurones displaying neurites, Mean ± s.e.m (%) ([2]; 30 pM): 66 ± 2% | Neurite length measured using optical micrometry, Mean ± s.e.m (%) ([2]; 30 pM): 204 ± 6% | Muscarinic acetylcholine receptor density in brain [3]: significantly restored | D2 receptor density [4]: 217±45.7 fmol/mg protein | Behavioural deficits ([5]; oral administration): improve the behavioural deficits | Lifespan (survival) ([5]; oral administration (FIG. 5)): increase the lifespan
